Measured values as given in patent US6544989B2, “Benzazoles: benzoxazole, benzthiazole and benzimidazole derivatives” (Syngenta Limited, priority 1998, dated 2003).

What was measured:
Plasmopara viticola = experiment: Fungicidal test, Plasmopara viticola (PLASVI) on vines, PRCO; assay type: in vivo; conditions: METHOD 2 (unbanded)
Pyricularia oryzae = assay type: in vivo; conditions: METHOD 2 (unbanded)
[1] = tested on: Erysiphe graminis f.sp. tritici; experiment: Fungicidal test, Erysiphe graminis f.sp. tritici (ERYSGT) on wheat, PRCO; assay type: in vivo; conditions: 1 d Prot/Foir; METHOD 2 (unbanded)
Puccinia recondita = experiment: Fungicidal test, Puccinia recondita (PUCCRT) on wheat, PRCO; assay type: in vivo; conditions: METHOD 2 (unbanded)
Uncinula necator = experiment: Fungicidal test, Uncinula necator (UNCINE) on vines, PRCO; assay type: in vivo; conditions: METHOD 2 (unbanded)
Musca domestica = conditions: 500 ppm by weight; knockdown assessed 15 minutes after treatment
Venturia inaequalis = experiment: Fungicidal test, Venturia inaequalis (VENTIN) on apples, PRCO; assay type: in vivo; conditions: METHOD 2 (unbanded)
[2] = tested on: Phytophthora infestans lycopersici; assay type: in vivo; conditions: METHOD 2 (unbanded)
Meloidogyne incognita = experiment: Nematode test, J2 infective juveniles of Meloidogyne incognita, mortality; conditions: 12.5 ppm; J2 infective juveniles suspended in solution; mortality after three days
Rhizoctonia solani = experiment: Fungicidal test, Rhizoctonia solani (RHIZSO) on rice, PRCO; assay type: in vivo; conditions: METHOD 2 (unbanded)
Septoria nodorum = experiment: Fungicidal test, Septoria nodorum (LEPTNO) on wheat, PRCO; assay type: in vivo; conditions: METHOD 2 (unbanded)

SMILES | PLASVI 1 d Prot/Foir PRCO (Plasmopara viticola) | PYRIOR 1 d Prot/Foir PRCO (Pyricularia oryzae) | ERYSGT 1 d Prot/Foir PRCO [1] | PUCCRT 1 d Prot/Foir PRCO (Puccinia recondita) | UNCINE 1 d Prot/Foir PRCO (Uncinula necator) | MUSCDO AC = Musca domestica (knockdown), score (Musca domestica) | VENTIN 1 d Prot/Foir PRCO (Venturia inaequalis) | PHYTIN 1 d Prot/Foir PRCO [2] | MELGIN = Meloidogyne incognita, grading of mortality (score) (Meloidogyne incognita) | RHIZSO 1 d Prot/Foir PRCO (Rhizoctonia solani) | LEPTNO 1 d Prot/Foir PRCO (Septoria nodorum)
Cc1nsc(NC(=O)Cc2ccc3ocnc3c2)c1Cl [1(A3)] | 6 | 91 | 88 | 59 | 43 | 0 (0 indicates less than 40% mortality) | 25 | 100 | 5 (5 indicates 40-79% mortality) | – | –
Cc1nc2cc(CC(=O)Nc3snc(C)c3Cl)ccc2s1 [2(A13)] | – | 47 | 31 | 99 | 72 | 0 (0 indicates less than 40% mortality) | – | 100 | 5 (5 indicates 40-79% mortality) | 43 | 62
CCCCc1nc2cc(CC(=O)Nc3snc(C)c3Cl)ccc2o1 [5(A3)] | 39 | 31 | 40 | 88 | 72 | 0 (0 indicates less than 40% mortality) | −10 | 100 | 0 (0 indicates less than 40% mortality) | – | 30
CCN(C(=O)Cc1ccc2oc(CC(C)(C)C)nc2c1)c1snc(C)c1Cl [15(C3)] | – | 7 | 38 | 13 | 100 | 9 (9 indicates 80-100% mortality) | 64 | 97 | 0 (0 indicates less than 40% mortality) | – | 93
CCCN(C(=O)Cc1ccc2oc(CC(C)(C)C)nc2c1)c1snc(C)c1Cl [15(D3)] | – | 27 | 55 | 25 | 100 | 0 (0 indicates less than 40% mortality) | −14 | 99 | 0 (0 indicates less than 40% mortality) | – | 70
CCOCN(C(=O)Cc1ccc2oc(CC(C)(C)C)nc2c1)c1snc(C)c1Cl [15(L3)] | – | 20 | 100 | 17 | 99 | 9 (9 indicates 80-100% mortality) | −21 | 97 | 0 (0 indicates less than 40% mortality) | – | 40
Cc1nsc(N(C(=O)Cc2ccc3oc(CC(C)(C)C)nc3c2)C(C)C)c1Cl [15(N3)] | – | 13 | 8 | 3 | 87 | 0 (0 indicates less than 40% mortality) | 3 | 3 | 0 (0 indicates less than 40% mortality) | – | −2
Cc1nsc(NC(=O)Cc2ccc3oc(C4CCCC4)nc3c2)c1Cl [28(A3)] | 0 | 81 | 46 | 86 | 9 | 5 (5 indicates 40-79% mortality) | 53 | 100 | 0 (0 indicates less than 40% mortality) | – | 20
Cc1nsc(NC(=O)Cc2ccc3oc(CC4CC4)nc3c2)c1Cl [41(A3)] | – | 33 | 59 | 98 | 91 | 0 (0 indicates less than 40% mortality) | 50 | 100 | 0 (0 indicates less than 40% mortality) | – | 77
Cc1nsc(NC(=O)Cc2ccc3oc(CF)nc3c2)c1Cl [73(A3)] | – | 100 | 93 | 100 | 93 | 0 (0 indicates less than 40% mortality) | – | 100 | 0 (0 indicates less than 40% mortality) | 0 | 57
